Reference: patent publication US5891742A, “Affinity selection of ligands by mass spectroscopy” (Chiron Corporation, priority 1995, dated 1999)

Experiments:
uPAR = uPAR (Homo sapiens, UniProt Q03405); conditions: individual N-substituted glycine peptoids
Experimental: Human urokinase plasminogen activator receptor (UPAR) was expressed in a soluble, truncated form as described by Rosenberg et al., W094/28145, incorporated herein by reference. […] The ligand uPA1-48 was prepared as described in Rosenberg, supra.

sUPAR = sUPAR (Homo sapiens, UniProt Q03405); conditions: mixture 1 μM per compound, sUPAR 1 μM
Chain of sUPAR (Q03405 23-305): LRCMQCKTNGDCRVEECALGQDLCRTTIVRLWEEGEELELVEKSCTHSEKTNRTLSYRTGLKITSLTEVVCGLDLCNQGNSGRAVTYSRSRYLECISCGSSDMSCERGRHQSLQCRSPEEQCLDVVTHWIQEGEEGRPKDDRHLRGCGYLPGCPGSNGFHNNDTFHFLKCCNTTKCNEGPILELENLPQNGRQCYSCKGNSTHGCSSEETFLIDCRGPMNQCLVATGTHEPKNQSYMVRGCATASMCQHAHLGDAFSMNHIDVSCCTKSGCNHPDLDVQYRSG
Experimental: The mixture (1 μM per compound) was contacted with sUPAR (1 μM) in the presence and absence of uPA1-48(2 μM), incubated for 30 minutes, and applied to a SEC HPLC column (Pharmacia HSIO/IO). The compound-target complex eluting in the excluded volume of the column was collected and analyzed on an ES MS (PE-Sciex).

Chain of uPAR (Q03405 23-305): as above

Row | Substance | activity (affinity for uPAR) (uPAR) | selection as compound-target complex, detected by ES MS (sUPAR; absence of uPA1-48, 30 minutes, SEC HPLC excluded volume) | specificity of selection, by competition with ligand uPA1-48 (sUPAR; presence of uPA1-48 (2 μM))
1 | 1,4-benzodioxane | insignificant activity |  | 
2 | diphenyl |  | selected | specificity was confirmed by competition
